We go through 23 compounds from ChEMBL document CHEMBL2375214, “Evaluation of anti-HCV activity and SAR study of (+)-lycoricidine through targeting of host heat-stress cognate 70 (Hsc70)” (Bioorg Med Chem Lett, 2013).

In series [1] the test system is Hepatitis C virus. As to the kind of experiment: Selectivity index, ratio of CC50 for human Huh7.5 cells to EC50 for Hepatitis C virus. It counts as toxicity, cell-based, Huh-7. To be noted: read-out: Ratio CC50/EC50.
Series [2] in a line: Cytotoxicity against human Huh7.5 cells treated after 96 hrs by MTT assay. It counts as cell-based, Huh-7.
For series [3], the system named is Hepatitis C virus. As to the kind of experiment: Antiviral activity against Hepatitis C virus infected in human Huh7.5 cells after 96 hrs by fluorescence microscopic analysis. It counts as functional, organism-based, Hepacivirus hominis. As to conditions: huh-7.
The nature of series [4]: Down regulation of Hsc70 protein expression in Hepatitis C virus-infected human Huh7.5 cells […] at 1 ug/mL after 24 hrs by Western blotting analysis relative to actin expression. As to conditions: Huh-7. It counts as functional, cell-based. Background: A western blot detects proteins with antibodies after separation by electrophoresis.

A short description of series [5]: Down regulation of Hsc70 protein expression in Hepatitis C virus-infected human Huh7.5 cells […] at 0.1 ug/mL after 24 hrs by Western blotting analysis relative to actin expression. It counts as functional, cell-based. As to conditions: Huh-7.
The nature of series [6]: Down regulation of Hsc70 protein expression in Hepatitis C virus-infected human Huh7.5 cells at 0.1 ug/mL after 24 hrs by Western blotting analysis relative to actin expression. It counts as functional, cell-based. To be noted: Huh-7.
Series [7] can be described thus: Down regulation of Hsc70 protein expression in Hepatitis C virus-infected human Huh7.5 cells at 1 ug/mL after 24 hrs by Western blotting analysis relative to actin expression. It counts as functional, cell-based. As to conditions: Huh-7.
The nature of series [8]: Down regulation of Hsc70 protein expression in Hepatitis C virus-infected human Huh7.5 cells at 100 ug/mL after 24 hrs by Western blotting analysis relative to actin expression. To be noted: Huh-7. It counts as functional, cell-based.
The nature of series [9]: Down regulation of Hsc70 protein expression in Hepatitis C virus-infected human Huh7.5 cells […] at 100 ug/mL after 24 hrs by Western blotting analysis relative to actin expression. It counts as functional, cell-based. As to conditions: Huh-7.
Series [10] is described as follows: Down regulation of Hsc70 protein expression in Hepatitis C virus-infected human Huh7.5 cells at 10 ug/mL after 24 hrs by Western blotting analysis relative to actin expression. It counts as functional, cell-based. As to conditions: Huh-7.
Series [11] can be described thus: Down regulation of Hsc70 protein expression in Hepatitis C virus-infected human Huh7.5 cells […] at 10 ug/mL after 24 hrs by Western blotting analysis relative to actin expression. It counts as functional, cell-based. To be noted: Huh-7.
A short description of series [12]: Down regulation of Hsc70 protein expression in Hepatitis C virus-infected human Huh7.5 cells at 0.1 ug/mL after 24 hrs by Western blotting analysis relative to control. It counts as functional, cell-based. To be noted: Huh-7.
Series [13] is described as follows: Down regulation of Hsc70 protein expression in Hepatitis C virus-infected human Huh7.5 cells […] at 0.1 ug/mL after 24 hrs by Western blotting analysis relative to control. To be noted: Huh-7. It counts as functional, cell-based. On the set-up: scale not given: the % may be the effect or the level left.
Series [14] deals with Huh-7. Kind of series: Inhibition of Hsc70 mRNA expression in Hepatitis C virus-infected human Huh7.5 cells at 100 ug/mL after 24 hrs by RT-PCR analysis relative to control. It counts as functional. To be noted: Huh-7, 24 h.
The subject of series [15] is Huh-7. Kind of series: Inhibition of Hsc70 mRNA expression in Hepatitis C virus-infected human Huh7.5 cells at 10 ug/mL after 24 hrs by RT-PCR analysis relative to control. It counts as functional. As to conditions: Huh-7, 24 h.

SMILES strings stand for the structures.

By CC50 is commonly meant the concentration that lowers cell viability or growth by half. A word on the EC50: it is the concentration that produces a half-maximal response. As for `CO[C@@H]1[C@H](OC)[C@@H](OC)C[C@@H]2c3cc4c(cc3C(=O)N(C)[C@@H]12)OCO4`, the selectivity ratio with Hepatitis C virus [1] is greater than 5.56. This compound returned a CC50 at 96 h in series [2] greater than 300 µM. In the series on Hepatitis C virus [3], the EC50 is 54 nmol/mL.

Consider `CC1(C)O[C@@H]2[C@H](O1)[C@@H](O[Si](C)(C)C(C)(C)C)C=C1c3cc4c(cc3C(=O)N[C@H]12)OCO4`, for which, in the series with Hepatitis C virus [1], the selectivity ratio was 2.13. The compound also gave a CC50 at 96 h in [2] of 160 µM. This compound also yielded an EC50 with Hepatitis C virus [3] of 75 nmol/mL.

As to `CCO[C@@H]1[C@H](OCC)[C@@H](OCC)C=C2c3cc4c(cc3C(=O)N(CC)[C@H]21)OCO4`, the selectivity ratio in the series on Hepatitis C virus [1] was less than 3.01. In series [2], this compound registered a CC50 at 96 h of 252 µM. For the same compound, in the series with Hepatitis C virus [3], the EC50 is greater than 83 nmol/mL.

As to `CCO[C@@H]1[C@H](OCC)[C@@H](OCC)C[C@@H]2c3cc4c(cc3C(=O)N(CC)[C@@H]12)OCO4`, the selectivity ratio in the series on Hepatitis C virus [1] was greater than 6.98. This compound returned a CC50 at 96 h in series [2] greater than 300 µM. The compound also displayed an EC50 in the series with Hepatitis C virus [3] of 43 nmol/mL.

`CC1(C)O[C@@H]2[C@H](O1)[C@@H](OCc1ccccc1)C=C1c3cc4c(cc3C(=O)N(Cc3ccccc3)[C@H]12)OCO4`: the selectivity ratio in the series with Hepatitis C virus [1] was 3.08. For the same compound, half-maximal cytotoxicity in series [2] (CC50 at 96 h) was put at 200 µM. Besides, the EC50 with Hepatitis C virus [3] turned out to be 65 nmol/mL.

Consider `CO[C@H]1C[C@@H]2c3cc4c(cc3C(=O)N(C)[C@H]2[C@@H]2OC(C)(C)O[C@@H]21)OCO4`, for which the selectivity ratio in the series on Hepatitis C virus [1] came out at 2.17. Besides, in series [2], the CC50 at 96 h came out at 250 µM. This compound displayed an EC50 in the series on Hepatitis C virus [3] of 92 nmol/mL.

Take `CC1(C)O[C@H]2[C@@H]3NC(=O)c4cc5c(cc4[C@H]3C[C@H](O)[C@H]2O1)OCO5`: in the series with Hepatitis C virus [1], the selectivity ratio was less than 25.5. For the same compound, the half-maximal cytotoxic concentration (CC50) at 96 h in series [2] was 280 µM. In the series with Hepatitis C virus [3], this compound registered an EC50 greater than 11 nmol/mL.

Turning to `C=CCO[C@H]1C=C2c3cc4c(cc3C(=O)N(CC=C)[C@H]2[C@@H]2OC(C)(C)O[C@@H]21)OCO4`, the selectivity ratio with Hepatitis C virus [1] is 6.25. It took 250 µM to reach half-maximal cytotoxicity in series [2] (CC50 at 96 h). The same compound had an EC50 in the series on Hepatitis C virus [3] of 40 nmol/mL.

For the compound `O[C@@H]1[C@H](O)[C@@H](O)C=C2c3cc4c(cc3CN[C@H]21)OCO4`, the selectivity ratio in the series with Hepatitis C virus [1] is greater than 10.9. Also, in series [2], the CC50 at 96 h was greater than 360 µM. This compound also returned an EC50 in the series on Hepatitis C virus [3] of 33 nmol/mL.

As for `CO[C@@H]1[C@H](OC)[C@@H](OC)C=C2c3cc4c(cc3C(=O)N(C)[C@H]21)OCO4`, the selectivity ratio in the series with Hepatitis C virus [1] was 8.2. Besides, it took 180 µM to reach half-maximal cytotoxicity in [2] (CC50 at 96 h). Moreover, in the series on Hepatitis C virus [3], the EC50 is 22 nmol/mL.

Take `CC(=O)O[C@H]1C=C2c3cc4c(cc3C(=O)N[C@H]2[C@@H]2OC(C)(C)O[C@@H]21)OCO4`: the selectivity ratio in the series on Hepatitis C virus [1] was greater than 4.76. The same compound had a CC50 at 96 h in [2] greater than 300 µM. The EC50 in the series with Hepatitis C virus [3] is 63 nmol/mL.

On to `C=CCO[C@@H]1[C@H](OCC=C)[C@@H](OCC=C)C=C2c3cc4c(cc3C(=O)N(CC=C)[C@H]21)OCO4`, for which the selectivity ratio in the series with Hepatitis C virus [1] is 1.62. For the same compound, the midpoint of cytotoxicity in series [2], the CC50 at 96 h, lay at 120 µM. In the series with Hepatitis C virus [3], the EC50 came out at 74 nmol/mL.

As to `O[C@@H]1[C@@H](O)C=C2CCN3Cc4cc5c(cc4[C@H]1C23)OCO5` (stereo partly specified), the fold change (FC) in series [4] was 0.2; in [5], 1.86; in series [6], 0.78; in [7], 0.79.

Turning to `O[C@H]1[C@@H]2c3cc4c(cc3CN3CC[C@@H](C[C@H]1O)[C@H]23)OCO4`, the fold change (FC) was determined as 0.67 in series [8]; 0.1 in series [9]; 1.16 in [4]; 0.6 in [10]; 1.2 in series [5]; 1.01 in series [6]. Moreover, the fold change (FC) worked out at 1.22 in series [11] and 0.68 in series [7].

Consider `CCO[C@H]1C[C@@H]2c3cc4c(cc3C(=O)N(CC)[C@H]2[C@@H]2OC(C)(C)O[C@@H]21)OCO4`, for which, in the series on Hepatitis C virus [1], the selectivity ratio was 3.06. For the same compound, in series [2], it took 260 µM to reach half-maximal cytotoxicity (CC50 at 96 h). Besides, in the series on Hepatitis C virus [3], the EC50 came to 85 nmol/mL.

In the case of `CCO[C@H]1C=C2c3cc4c(cc3C(=O)N(CC)[C@H]2[C@@H]2OC(C)(C)O[C@@H]21)OCO4`, the selectivity ratio in the series on Hepatitis C virus [1] came to 12. Also, the CC50 at 96 h in series [2] came to 180 µM. The EC50 with Hepatitis C virus [3] came out at 15 nmol/mL.

Regarding `C=CCO[C@@H]1[C@H](OCC=C)[C@@H](OCC=C)C[C@@H]2c3cc4c(cc3C(=O)N(CC=C)[C@@H]12)OCO4`, in the series with Hepatitis C virus [1], the selectivity ratio stood at 3.17. For the same compound, half-maximal cytotoxicity in series [2] (CC50 at 96 h) was put at 38 µM. The EC50 with Hepatitis C virus [3] was 12 nmol/mL.

On to `O=C1N[C@H]2[C@H](O)[C@H](O)[C@@H](O)C[C@@H]2c2cc3c(cc21)OCO3`, for which the selectivity ratio in the series on Hepatitis C virus [1] is 33.8. It took 23 µM to reach half-maximal cytotoxicity in [2] (CC50 at 96 h). The compound also showed an EC50 with Hepatitis C virus [3] of 0.68 nmol/mL.

Turning to `CO[C@H]1C=C2c3cc4c(cc3C(=O)N(C)[C@H]2[C@@H]2OC(C)(C)O[C@@H]21)OCO4`, in the series with Hepatitis C virus [1], the selectivity ratio is 3.01. This compound also yielded a CC50 at 96 h in series [2] of 280 µM. The compound further displayed an EC50 in the series on Hepatitis C virus [3] of 93 nmol/mL.

As to `CC(=O)O[C@@H]1[C@H](OC(C)=O)[C@@H](OC(C)=O)C=C2c3cc4c(cc3C(=O)N[C@H]21)OCO4` [LYCORICIDINE TRIACETATE], the selectivity ratio in the series with Hepatitis C virus [1] is less than 33.8. The same compound displayed a 50% cytotoxic concentration (CC50) at 96 h in series [2] of 33 µM. This compound displayed an EC50 with Hepatitis C virus [3] greater than 0.98 nmol/mL.

Turning to `CC1(C)O[C@@H]2[C@H](O1)[C@@H](O)C=C1c3cc4c(cc3C(=O)N[C@H]12)OCO4`, in the series on Hepatitis C virus [1], the selectivity ratio worked out at 9.09. For the same compound, in series [2], the CC50 at 96 h was 170 µM. In the series on Hepatitis C virus [3], this compound showed an EC50 of 11 nmol/mL.

The inhibition is the drop in the measured response relative to a control, in per cent. Turning to `O=C1N[C@@H]2C(=C[C@H](O)[C@@H](O)[C@H]2O)c2cc3c(cc21)OCO3`, the Activity in series [12] turned out to be 28%; in series [13], 6%. Further, the selectivity ratio in the series with Hepatitis C virus [1] was 12.7. The fold change (FC) was determined as 0.06 in series [5] and 0.72 in [6]. In addition, the inhibition at 100 µg/mL in the series on Huh-7 [14] came out at 83.1%. The compound also displayed a CC50 at 96 h in series [2] of 7.2 µM. Further, in the series with Hepatitis C virus [3], the EC50 came out at 0.55 nmol/mL. This compound also yielded an inhibition at 10 µg/mL in the series on Huh-7 [15] of 91.4%.

Take `CC(=O)O[C@H]1C[C@@H]2c3cc4c(cc3C(=O)N[C@H]2[C@@H]2OC(C)(C)O[C@@H]21)OCO4`: in the series on Hepatitis C virus [1], the selectivity ratio amounted to 3.03. It took 270 µM to reach half-maximal cytotoxicity in series [2] (CC50 at 96 h). This compound also displayed an EC50 in the series on Hepatitis C virus [3] of 89 nmol/mL.
